Structures are written as SMILES. In brackets after ≈: the same amount, converted by molar mass. Read-outs that look alike come from different tables or passages of the source.

In assay [1] the test system is Peptidoglycan synthesis of S. aureus RN450. Briefly: microbe, parasite or virus in culture. The class given is cell-based. Conditions: for IC50 / IC90: Staphylococcus aureus; for IC50: read-out: Peptidoglycan synthesis IC50; for IC90: read-out: Peptidoglycan synthesis IC90.
The test system of a further assay is S. aureus RN450. Kind of assay: microbe, parasite or virus in culture. The class given is cell-based. As to conditions: Staphylococcus aureus.
The test system of assay [2] is Protein synthesis of S. aureus RN450. Kind of assay: microbe, parasite or virus in culture. In kind it is cell-based. As to conditions: for IC50 / IC90: Staphylococcus aureus; for IC50: read-out: Protein synthesis IC50; for IC90: read-out: Protein synthesis IC90.
For another assay, the system named is S. aureus MRSA5. Kind of assay: microbe, parasite or virus in culture. In kind it is cell-based. Conditions: Staphylococcus aureus.
Assay [3] has as its system S. pneumoniae 700905. Briefly: microbe, parasite or virus in culture. The class given is cell-based. As to conditions: Streptococcus pneumoniae.
The test system of assay [4] is S. pneumoniae 157E. Briefly: microbe, parasite or virus in culture. The class given is cell-based. As to conditions: Streptococcus pneumoniae.
In assay [5] the test system is S. pneumoniae 157E. Also on record: species or system mice. As to conditions: mouse, in vivo.
Assay [6] deals with S. pneumoniae 700905. Also on record: species or system mice. As to conditions: mouse, in vivo.
For a further assay, the system named is S. pneumoniae PBS1339. On the set-up: species or system mice. As to conditions: mouse, in vivo, po.
In the next assay the test system is B. cereus 98/2658. Kind of assay: microbe, parasite or virus in culture. The class given is cell-based. As to conditions: Bacillus cereus.
In a further assay the test system is B. cereus 98/2620. Kind of assay: microbe, parasite or virus in culture. In kind it is cell-based. Conditions: Bacillus cereus.
The subject of a further assay is B. cereus 97/4144. Kind of assay: microbe, parasite or virus in culture. The class given is cell-based. As to conditions: Bacillus cereus.
For another assay, the system named is B. cereus 95/3032. Briefly: microbe, parasite or virus in culture. In kind it is cell-based. As to conditions: Bacillus cereus.
A further assay has as its system E. faecalis 29212. Kind of assay: microbe, parasite or virus in culture. In kind it is cell-based. Conditions: Enterococcus faecalis.
For a further assay, the system named is E. faecium 494. Briefly: microbe, parasite or virus in culture. The class given is cell-based. Conditions: Enterococcus faecium.
A further assay concerns S. aureus RN4250. Briefly: microbe, parasite or virus in culture. In kind it is cell-based. Conditions: Staphylococcus aureus, RN4250.

In general, IC50 refers to the concentration needed to halve the response being measured. As a reminder, the IC90 is the point of the concentration-response curve where the effect stands at 90%. As for `CN(C)[C@@H]1C(O)=C(C(N)=O)C(=O)[C@@]2(O)C(O)=C3C(=O)c4c(O)ccc(C#Cc5ccc(N)cc5)c4C[C@H]3C[C@@H]12` [AA], the “effect on peptidoglycan biosynthesis in words” value in assay [1] is “affect peptidoglycan biosynthesis”. The IC50 came out at 3.8 µg/mL (≈ 7.18 µM) in assay [1] and 0.14 µg/mL (≈ 0.264 µM) in assay [2]. The concentration for an effect of 90% (IC90) in assay [1] was found to be 23 µg/mL (≈ 43.4 µM); in [2] it was 1.4 µg/mL (≈ 2.64 µM). Moreover, the MIC with S. aureus RN450 came to 1 µg/mL (≈ 1.89 µM); in the assay on S. aureus MRSA5, 0.5 µg/mL (≈ 0.944 µM); against S. pneumoniae 700905 [3], 1 µg/mL (≈ 1.89 µM); in the assay with S. pneumoniae 157E [4], 0.5 µg/mL (≈ 0.944 µM). The “macromolecular synthesis profile in words” value in assay [2] is “profile similar to class I compounds”.

Turning to `CN(C)[C@@H]1C(O)=C(C(N)=O)C(=O)[C@@]2(O)C(O)=C3C(=O)c4c(O)ccc(-c5ccc(CO)cc5)c4C[C@H]3C[C@@H]12` [AB], the IC50 came out at 18.3 µg/mL (≈ 35.2 µM) in assay [1] and 0.19 µg/mL (≈ 0.365 µM) in assay [2]. Further, the IC90 is more than 32 µg/mL in assay [1] and 1.8 µg/mL (≈ 3.46 µM) in [2]. Also, the MIC against S. aureus RN450 worked out at 0.06 µg/mL (≈ 0.115 µM); with S. aureus MRSA5, 1 µg/mL (≈ 1.92 µM); in the assay with S. pneumoniae 700905 [3], 4 µg/mL (≈ 7.68 µM); in the assay with S. pneumoniae 157E [4], 0.06 µg/mL (≈ 0.115 µM).

For `COCCOC(=O)Nc1ccc(-c2ccc(O)c3c2C[C@H]2C[C@H]4[C@H](N(C)C)C(O)=C(C(N)=O)C(=O)[C@@]4(O)C(O)=C2C3=O)cc1` [AD], the MIC in the assay on S. aureus RN450 was 0.06 µg/mL (≈ 0.0987 µM); against S. aureus MRSA5, 1 µg/mL (≈ 1.65 µM); with S. pneumoniae 700905 [3], 0.5 µg/mL (≈ 0.823 µM); against S. pneumoniae 157E [4] it was 0.13 µg/mL (≈ 0.214 µM).

Take `CN(C)[C@@H]1C(O)=C(C(N)=O)C(=O)[C@@]2(O)C(O)=C3C(=O)c4c(O)ccc(-c5ccc(NC(=O)c6ccno6)cc5)c4C[C@H]3C[C@@H]12` [AE]: the half-inhibitory concentration (IC50) in assay [1] amounted to 6 µg/mL (≈ 9.99 µM); in assay [2], 0.07 µg/mL (≈ 0.117 µM). For the same compound, the IC90 is more than 32 µg/mL in [1] and 0.62 µg/mL (≈ 1.03 µM) in [2]. Besides, the MIC with S. aureus RN450 came out at 0.06 µg/mL (≈ 0.0999 µM); against S. aureus MRSA5 it was 0.5 µg/mL (≈ 0.833 µM); in the assay on S. pneumoniae 700905 [3], 1 µg/mL (≈ 1.67 µM); in the assay with S. pneumoniae 157E [4] it was 0.13 µg/mL (≈ 0.216 µM).

Consider `CN(CCCc1cc(N(C)C)c2c(c1O)C(=O)C1=C(O)[C@]3(O)C(=O)C(C(N)=O)=C(O)[C@@H](N(C)C)[C@@H]3C[C@@H]1C2)Cc1ccccc1` [AK], for which the MIC stood at 1 µg/mL (≈ 1.62 µM) in the assay with S. aureus RN450, 2 µg/mL (≈ 3.23 µM) against S. aureus MRSA5, 0.5 µg/mL (≈ 0.808 µM) against S. pneumoniae 700905 [3] and 0.5 µg/mL (≈ 0.808 µM) in the assay with S. pneumoniae 157E [4].

Regarding `C[C@H]1c2ccc(CN3CCC(C(F)(F)F)CC3)c(O)c2C(=O)C2=C(O)[C@]3(O)C(=O)C(C(N)=O)=C(O)[C@@H](N(C)C)C3[C@@H](O)C21` (stereo partly shown) [AN], the PD50 in the assay on S. pneumoniae 157E [5] (iv) worked out at 0.54 mg/kg; in the assay on S. pneumoniae 157E [5] (po) it was 2.3 mg/kg; with S. pneumoniae 700905 [6] (iv), 1.4 mg/kg; in the assay on S. pneumoniae 700905 [6] (po), 8.4 mg/kg.

For the compound `CC1(C)S[C@@H]2[C@H](NC(=O)[C@H](N)c3ccccc3)C(=O)N2[C@H]1C(=O)O` [Ampicillin, reference compound], the PD50 in the assay on S. pneumoniae 157E [5] (iv) was 0.6 mg/kg; in the assay with S. pneumoniae 157E [5] (po) it was 1.1 mg/kg; in the assay on S. pneumoniae PBS1339, 3.2 mg/kg; in the assay with S. pneumoniae 700905 [6] (iv), 43.7 mg/kg; in the assay with S. pneumoniae 700905 [6] (po) it was more than 50 mg/kg.

Take `CO/N=C(\C(=O)N[C@@H]1C(=O)N2C(C(=O)O)=C(COC(C)=O)CS[C@H]12)c1csc(N)n1` [Cefotaxime]: the MIC in the assay on B. cereus 98/2658 was more than 64 µg/mL; against B. cereus 98/2620, 64 µg/mL (≈ 141 µM); against B. cereus 97/4144, 32 µg/mL (≈ 70.3 µM); in the assay with B. cereus 95/3032, more than 64 µg/mL.

`CCC[C@@H]1C[C@@H](C(=O)N[C@@H]([C@H]2O[C@H](SC)[C@H](O)[C@@H](O)[C@H]2O)[C@H](C)Cl)N(C)C1` [Clindamycin]: the MIC with B. cereus 98/2658 turned out to be 0.5 µg/mL (≈ 1.18 µM); in the assay with B. cereus 98/2620, 0.25 µg/mL (≈ 0.588 µM); in the assay with B. cereus 97/4144 it was 0.5 µg/mL (≈ 1.18 µM); in the assay on B. cereus 95/3032, 0.5 µg/mL (≈ 1.18 µM).

As for `CN(Cc1ccccc1)Cc1cc(N(C)C)c2c(c1O)C(=O)C1=C(O)[C@]3(O)C(=O)C(C(N)=O)=C(O)[C@@H](N(C)C)[C@@H]3C[C@@H]1C2` [Compound I], the PD50 in the assay on S. pneumoniae 157E [5] (iv) is recorded as 1 mg/kg; in the assay with S. pneumoniae 157E [5] (po), 13.4 mg/kg; in the assay on S. pneumoniae 700905 [6] (iv) it was 2.2 mg/kg; with S. pneumoniae 700905 [6] (po) it was 31.6 mg/kg. For the same compound, in the assay with S. pneumoniae 157E [5] (po), the “oral activity in words” value is listed as “exhibited oral activity”. For the same compound, the MIC with E. faecalis 29212 was 1 µg/mL (≈ 1.69 µM); with S. aureus MRSA5, 1 µg/mL (≈ 1.69 µM); against S. pneumoniae 700905 [3], 0.5 µg/mL (≈ 0.846 µM); with E. faecium 494, 1 µg/mL (≈ 1.69 µM).

With `COc1ccc(-c2ccc(O)c3c2C[C@H]2C[C@H]4[C@H](N(C)C)C(O)=C(C(N)=O)C(=O)[C@@]4(O)C(O)=C2C3=O)cc1CN(C)C(C)C` [Compound M], the MIC with S. aureus RN450 and against S. aureus RN4250 was 0.06 µg/mL (≈ 0.0991 µM) throughout.

`CN(C)Cc1ccc(-c2ccc(O)c3c2C[C@H]2C[C@H]4[C@H](N(C)C)C(O)=C(C(N)=O)C(=O)[C@@]4(O)C(O)=C2C3=O)cc1` [Compound V]: the MIC with S. aureus RN450 and against S. aureus RN4250 was 0.06 µg/mL (≈ 0.11 µM) in each case.
